According to patent US8329063B2, “Low-emission formaldehyde donor preparations” (Air Liquide Sante (International), priority 2004, dated 2012):

How the values were obtained:
[1] = Determining formaldehyde in the gas phase above preservatives (Dräger tubes 0.2/a); type: physicochemical
Experimental: 1. Method of Determining Formaldehyde in the Gas Phase
(§1) • The determination of the formaldehyde content in the gas phase above various preservatives was carried out using Dräger tubes 0.2/a (No. 6733081) in accordance with the instructions for use from Dräger Safety AG & Co. KGaA (9th Edition, July 2001). For this purpose, about 100 g of the sample to be investigated were introduced into a 250 ml wide-necked beaker with a screw lid and left to stand, in the closed state, for at least 3 hours at room temperature. The measurement was read off after 2 strokes on the scale 0.5 to 5 ppm, n=10. […] 2. Method of Determining Ammonia (Amine) in the Gas Phase • The determination of the amine content in the gas phase above various preservatives was carried out using Dräger tubes 2/a (No. 6733231) in accordance with the instructions for use from Dräger Safety AG & Co. KGaA (9th Edition, July 2001). For this purpose, about 100 g of the sample to be investigated were introduced into a 250 ml wide-necked beaker with a screw lid and left to stand, in the closed state, for at least 3 hours at room temperature. The measurement was read off after one stroke on the scale. […] 3. Formaldehyde and Amine Emissions of Preservatives • In the gas phase of preservatives formulated as described below, using the methods described under 1. and 2., the following formaldehyde and amine concentrations were measured in the gas phase (Table 1): • Preservatives A, B and C were prepared by adding urea and monoethylene glycol dissolved in water to Grotan® OX and stripping off the water on a rotary evaporator (2 hours at 60° C. and 30 mbar). Preservative D (comparative) was prepared by adding monoethylene glycol to Grotan® OX.

[2] = Determining ammonia (amine) in the gas phase above preservatives (Dräger tubes 2/a); type: physicochemical; settings: amine as NH3
Experimental: as §1

ppm of HCHO ([1]; After 2 weeks (gas phase)): 3-5 ppm
ppm of HCHO ([1]; After 11 weeks (gas phase)): 0.7 ppm
ppm of HCHO ([1]; After 4 days (gas phase)): 3 ppm
ppm of amine ([2]; After 2 weeks (gas phase)): 15 ppm
ppm of amine ([2]; After 11 weeks (gas phase)): 13 ppm
ppm of amine ([2]; After 4 days (gas phase)): 10 ppm
Compound: CC1CN(CN2COC(C)C2)CO1 (stereo not drawn) [Example E, N,N′-methylenebis(5-methyloxazolidine)]
